As a reminder, the GI50 is the concentration that inhibits growth by half. Read a low GI50 as more potent growth inhibition.

The subject of one data set is BT-549. Nature of the data set: NCI IVCLSP growth inhibition (SRB), BT-549. It counts as cell-based, human. The following applies: 48 h drug incubation. As to the method: (§1) FIG. 1 presents nine compounds that were tested using the National Cancer Institute (NCI) 60 human tumor cell lines. The cells lines, which represent leukemia, melanoma, and cancers of the lung, colon, brain, ovary, breast, prostate, and kidney, are listed in Table 1.
(§2) Compounds 1-9 were tested according to the NCI Developmental Therapeutics Program (DTP) In Vitro Cell Line Screening Project (IVCLSP). […] Methodology for testing under the IVCLSP is as follows: The human tumor cell lines of the cancer screening panel are grown in RPMI 1640 medium containing 5% fetal bovine serum and 2 mM L-glutamine. […]
(§3) Following drug addition, the plates are incubated for an additional 48 h at 37° C., 5% CO2, 95% air, and 100% relative humidity. […] Bound stain is subsequently solubilized with 10 mM trizma base, and the absorbance is read on an automated plate reader at a wavelength of 515 nm. […] Using the seven absorbance measurements [time zero, (Tz), control growth, (C), and test growth in the presence of drug at the five concentration levels (Ti)], the percentage growth is calculated at each of the drug concentrations levels. Percentage growth inhibition is calculated as: [(Ti−Tz)/(C−Tz)]×100 for concentrations for which Ti>/=Tz [(Ti−Tz)/Tz]×100 for concentrations for which Ti<Tz.
(§4) Three dose response parameters are calculated for each experimental agent. […]

For a further data set, the system named is MDA-MB-435. Nature of the data set: NCI IVCLSP growth inhibition (SRB), MDA-MB-435. It is filed as cell-based, human. The following applies: 48 h drug incubation. As to the method: as §1, §2, §3, §4
The test system of another data set is A549/ATCC. The experiment in a line: NCI IVCLSP growth inhibition (SRB), A549/ATCC. It is filed as cell-based, human. The following applies: 48 h drug incubation. As to the method: as §1, §2, §3, §4
Another data set concerns MOLT-4. Nature of the data set: NCI IVCLSP growth inhibition (SRB), MOLT-4. It is filed as cell-based, human. The following applies: 48 h drug incubation. As to the method: as §1, §2, §3, §4
Data set [1] deals with A-10 rat smooth muscle cells. The experiment in a line: Microtubule structure, indirect immunofluorescence, A-10 cells. It counts as cell-based. The following applies: 24 hours; 625 nM TAXOL, 167 nM vinblastine, 900 nM Compound 1. On the procedure: Because of the morphological effects of Compound 1 on cultured cells and the NCI COMPARE analysis results described above, the effects of vinblastine, TAXOL (paclitaxel), and Compound 1 on microtubule structure were examined. For these studies, A-10 rat smooth muscle cells were used since they grow as flat monolayers that are amenable to imaging. The A-10 cells were treated for 24 hours with EtOH (control), 625 nM TAXOL (paclitaxel), 167 nM vinblastine, and 900 nM of Compound 1. Microtubules were then visualized by indirect immunofluoresence staining with B-tubulin antibodies. FIGS. 2a-d present representative fields for the control, TAXOL (paclitaxel), vinblastine, and Compound 1 (“149”), respectively. None of these compounds affected the morphology of stress fibers composed of microfilaments.

The next data set deals with NCI/ADR cells. Nature of the data set: Cytotoxicity, NCI/ADR cells that overexpress P-glycoprotein. The conditions noted are these: for IC50: mean ± SEM for 3 experiments.
In a further data set the target is T1, P-glycoprotein (Homo sapiens, UniProt P08183).
T1 construct: NCI/ADR cells that overexpress P-glycoprotein; endogenous in cells; host or cells: NCI/ADR cells
T1 sequence (P08183 whole entry): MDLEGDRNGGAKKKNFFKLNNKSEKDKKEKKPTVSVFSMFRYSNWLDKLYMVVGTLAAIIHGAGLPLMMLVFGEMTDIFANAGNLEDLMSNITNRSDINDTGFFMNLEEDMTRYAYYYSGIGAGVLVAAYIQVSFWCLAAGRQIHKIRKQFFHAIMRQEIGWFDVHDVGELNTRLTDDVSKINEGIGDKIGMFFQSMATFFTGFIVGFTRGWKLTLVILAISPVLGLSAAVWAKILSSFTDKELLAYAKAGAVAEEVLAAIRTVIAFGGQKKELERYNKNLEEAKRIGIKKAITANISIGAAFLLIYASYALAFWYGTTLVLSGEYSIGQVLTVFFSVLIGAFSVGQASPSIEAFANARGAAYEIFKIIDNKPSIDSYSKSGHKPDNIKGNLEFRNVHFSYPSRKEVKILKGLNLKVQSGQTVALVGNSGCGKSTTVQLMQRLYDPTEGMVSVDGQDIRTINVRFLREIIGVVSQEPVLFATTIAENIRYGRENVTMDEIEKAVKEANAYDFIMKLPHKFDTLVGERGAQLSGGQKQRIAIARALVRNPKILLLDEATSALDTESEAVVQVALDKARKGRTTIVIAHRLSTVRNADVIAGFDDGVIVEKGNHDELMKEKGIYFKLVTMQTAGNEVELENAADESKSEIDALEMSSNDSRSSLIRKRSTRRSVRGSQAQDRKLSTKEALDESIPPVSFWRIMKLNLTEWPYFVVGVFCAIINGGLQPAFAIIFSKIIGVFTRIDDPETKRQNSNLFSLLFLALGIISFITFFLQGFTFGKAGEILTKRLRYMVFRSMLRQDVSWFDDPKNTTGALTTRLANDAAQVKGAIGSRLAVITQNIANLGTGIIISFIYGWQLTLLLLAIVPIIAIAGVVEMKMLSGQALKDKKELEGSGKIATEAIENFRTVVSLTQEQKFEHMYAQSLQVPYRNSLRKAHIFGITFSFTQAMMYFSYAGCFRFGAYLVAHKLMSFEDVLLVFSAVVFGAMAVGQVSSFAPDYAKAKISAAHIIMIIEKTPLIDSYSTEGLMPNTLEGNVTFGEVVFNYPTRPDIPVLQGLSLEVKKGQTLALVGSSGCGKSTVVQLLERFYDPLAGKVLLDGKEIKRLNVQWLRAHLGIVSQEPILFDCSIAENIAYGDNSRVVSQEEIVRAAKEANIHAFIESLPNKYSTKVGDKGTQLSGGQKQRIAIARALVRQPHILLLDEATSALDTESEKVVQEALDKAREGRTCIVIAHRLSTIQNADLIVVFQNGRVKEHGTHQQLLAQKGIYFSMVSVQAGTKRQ
The experiment in a line: P-glycoprotein antagonism: sensitivity of NCI/ADR cells to vinblastine. It is filed as cell-based. The following applies: absence or presence of 50 nM vinblastine. The source says:
To determine if this is due to inhibition of drug transport activity by these proteins, the effects of these compounds on P-glycoprotein were further characterized. The effects of the compounds on the sensitivity of NCI/ADR cells to vinblastine and of MCF-7/VP cells to vincristine were examined to evaluate antagonism of P-glycoprotein and MRP1, respectively. FIGS. 4a-b present graphs of antagonism score versus concentration for P-glycoprotein and MRP1, respectively.
The Pgp antagonism score is calculated as the percentage survival of cells in the absence of vinblastine/percentage survival in the presence of vinblastine. […] The MRP1 antagonism score is calculated as the percentage survival of cells in the absence of vincristine/percentage survival in the presence of vincristine. […] Concentrations of Compounds 1-5 above their IC50 toward MCF-7 cells are not indicated. Data for one of three similar experiments is shown.

For a further data set, the system named is PC-3. Nature of the data set: NCI IVCLSP growth inhibition (SRB), PC-3. The conditions noted are these: 48 h drug incubation. It is filed as cell-based, human. On the procedure: as §1, §2, §3, §4
The subject of another data set is U251. The experiment in a line: NCI IVCLSP growth inhibition (SRB), U251. It is filed as cell-based, human. The following applies: 48 h drug incubation. On the procedure: as §1, §2, §3, §4
The next data set deals with UO-31. Nature of the data set: NCI IVCLSP growth inhibition (SRB), UO-31. It counts as cell-based, human. The conditions noted are these: 48 h drug incubation. As to the method:
as §1, §2, §3, §4

The next data set concerns MALME-3M. The experiment in a line: NCI IVCLSP growth inhibition (SRB), MALME-3M. It is filed as cell-based, human. The conditions noted are these: 48 h drug incubation. As to the method: as §1, §2, §3, §4
For a further data set, the system named is MDA-N. Nature of the data set: NCI IVCLSP growth inhibition (SRB), MDA-N. It is filed as cell-based, human. The following applies: 48 h drug incubation. On the procedure: as §1, §2, §3, §4
For the next data set, the system named is SK-MEL-5. Nature of the data set: NCI IVCLSP growth inhibition (SRB), SK-MEL-5. It counts as cell-based, human. The conditions noted are these: 48 h drug incubation. As to the method: as §1, §2, §3, §4

Read-outs that look alike come from different tables or passages of the source. Where only a bound is given, the exact number is not on record here.

As for `COc1cc(CCc2cn(Cc3ccccc3)c3nc(N)nc(C)c23)cc(OC)c1OC` [Compound 1], the GI50 in the data set with BT-549 was over 1000 nM; in the data set on MDA-MB-435, 10.1 nM; in the data set with A549/ATCC it was 173 nM; with MOLT-4 it was 285 nM; in the data set on PC-3 it was 47.9 nM; with U251, 144 nM. For the same molecule, the GI50 was 347 nM in the data set with UO-31, 283 nM in the data set with MALME-3M, under 10 nM in the data set on MDA-N and 61.1 nM in the data set on SK-MEL-5. Further, the “effect on microtubule structure (in words)” value in data set [1] was “caused dose-dependent losses of microtubules”. Moreover, the “Resistance (NCI/ADR relative to MCF-7)” value with NCI/ADR cells (P-glycoprotein) stood at 1.3. Moreover, the IC50 in the data set on NCI/ADR cells (read-out: Cytotoxicity IC50, NCI/ADR) was determined as 250 ± 120 nM; in the data set on NCI/ADR cells (read-out: drug sensitivity (IC50), NCI/ADR, Table 4, P-glycoprotein overexpressing), 350 ± 40 nM. The “effect on P-glycoprotein-mediated resistance (in words)” value on P-glycoprotein was “no affect on P-glycoprotein at doses below its IC50”.

The record behind these values is patent US8501752B2, “Methods for treating cancer and other pathological proliferating disorders by inhibiting mitosis using pyrrolo[2,3-d]pyrimidines” (Duquesne University of the Holy Ghost, priority 2005, dated 2013).
